The values that follow come from publication PMC10584170, “Machine learning-based phenotypic imaging to characterise the targetable biology of Plasmodium falciparum male gametocytes for the development of transmission-blocking antimalarials” (PLOS Pathogens, 2023).

In experiment [1] the test system is P. falciparum male gametocytes. The experiment in a line: P. falciparum Dual Gamete Formation Assay (PfDGFA), male readout (exflagellation). It counts as cell-based, Plasmodium falciparum NF54. The following applies: for % inhibition male (individual replicates) R1: replicate R1; for % inhibition male (individual replicates) R3: replicate R3; for % inhibition male (individual replicates) R4: replicate R4; for Average inhibition male (%): average of replicates; for HitlevelM: number of replicates with >50% inhibition in the male readout. Put shortly: (§1)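 Day-14 NF54 gametocytes were incubated with compound for 24 h at 37°C under 1% O2/3% CO2/96% N2. Gametogenesis was triggered with ookinete medium (0.1 μM xanthurenic acid) plus Cy3-anti-Pfs25, and exflagellation was imaged by brightfield after cooling to 4°C then 28°C. Females were imaged by Pfs25 fluorescence 24 h later at 28°C.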

Experiment [2] deals with P. falciparum female gametocytes. The experiment in a line: P. falciparum Dual Gamete Formation Assay (PfDGFA), female readout (Pfs25-positive female gametes). The format is cell-based, Plasmodium falciparum NF54. The following applies: for % inhibition female (individual replicates) R1: replicate R1; for % inhibition female (individual replicates) R3: replicate R3; for % inhibition female (individual replicates) R4: replicate R4; for Average inhibition female (%): average of replicates; for HitlevelF: number of replicates with >50% inhibition in the female readout. In short, it runs like this: as §1

Where [3] appears, read: PfDGFA at 2µM, 24h preincubation with gametocytes prior to induction of gametogenesis.
Where [4] appears, read: PfDGFA at 2µM, 24h preincubation.
Where [5] appears, read: 2µM, 24h preincubation with gametocytes prior to induction of gametogenesis.

Consider `CS(=O)(=O)CCNCc1ccc(-c2ccc3c(Nc4ccc(Cl)cc4F)ccnc3c2)o1` [TCMDC-138445], for which, in experiment [1] (setting [3]), the “% inhibition male (individual replicates) R1” value is reported as -15.4%, the “% inhibition male (individual replicates) R3” value worked out at 14.3% and the “% inhibition male (individual replicates) R4” value was -10.6%. The “Average inhibition male (%)” value in experiment [1] (setting [4]) is recorded as -2.9%. In experiment [2] (setting [3]), the “% inhibition female (individual replicates) R1” value was 4.7%, the “% inhibition female (individual replicates) R3” value is reported as -15.0% and the “% inhibition female (individual replicates) R4” value is reported as 12.7%. For the same molecule, the “Average inhibition female (%)” value in experiment [2] (setting [4]) was -1.7%.

For `CN(C)CCN(C)Cc1ccc(-c2ccc3c(Nc4ccc(F)cc4Cl)ccnc3c2)o1` [TCMDC-138447], in experiment [1] (setting [5]), the “Average inhibition male (%)” value came out at 33.6%, the “% inhibition male (individual replicates) R1” value was determined as 23.0%, the “% inhibition male (individual replicates) R3” value is -2.6% and the “% inhibition male (individual replicates) R4” value is recorded as 53.6%. The HitlevelM in experiment [1] (2µM, 24h preincubation) was found to be 2. For the same molecule, in experiment [2] (setting [5]), the “Average inhibition female (%)” value turned out to be 19.6%, the “% inhibition female (individual replicates) R1” value turned out to be 22.4%, the “% inhibition female (individual replicates) R3” value was -11.7% and the “% inhibition female (individual replicates) R4” value was determined as 48.1%. In experiment [2] (2µM, 24h preincubation), this molecule showed a HitlevelF of 0.

`c1ccc(Oc2ccc(Nc3ccnc4cc(-c5cccc(CNCCN6CCOCC6)c5)ccc34)cc2)cc1` [TCMDC-138474]: in experiment [1] (setting [5]), the “Average inhibition male (%)” value amounted to 19.3%, the “% inhibition male (individual replicates) R1” value was 25.4%, the “% inhibition male (individual replicates) R3” value is -12.1% and the “% inhibition male (individual replicates) R4” value is on record as 25.6%. In experiment [1] (2µM, 24h preincubation), the HitlevelM is reported as 0. In addition, in experiment [2] (setting [5]), the “Average inhibition female (%)” value came to 29.1%, the “% inhibition female (individual replicates) R1” value is on record as 38.4%, the “% inhibition female (individual replicates) R3” value is 13.4% and the “% inhibition female (individual replicates) R4” value came out at 18.2%. In addition, in experiment [2] (2µM, 24h preincubation), the HitlevelF worked out at 0.

With `CN1CCN(Cc2cccc(-c3ccc4c(Nc5ccc(Oc6ccccc6)cc5)ccnc4c3)c2)CC1` [TCMDC-138476], in experiment [1] (setting [5]), the “Average inhibition male (%)” value is -8.7%, the “% inhibition male (individual replicates) R1” value is given as -12.6%, the “% inhibition male (individual replicates) R3” value is -7.4% and the “% inhibition male (individual replicates) R4” value is recorded as -11.7%. Also, the HitlevelM in experiment [1] (2µM, 24h preincubation) was 0. In addition, in experiment [2] (setting [5]), the “Average inhibition female (%)” value turned out to be 18.5%, the “% inhibition female (individual replicates) R1” value is given as 35.6%, the “% inhibition female (individual replicates) R3” value is listed as -5.5% and the “% inhibition female (individual replicates) R4” value amounted to 24.1%. Moreover, in experiment [2] (2µM, 24h preincubation), the HitlevelF is recorded as 0.
